These results are taken from ChEMBL document CHEMBL1201862, “PubChem BioAssay data set” (2004).

Some test systems named below: UO-31; MDA-MB-231; SW-620; HOP-62; UACC-62; SNB-75; Hs-578T; NCI-H522; HT-29; PC-3; HL-60; RPMI-8226; SK-MEL-2; A498; IGROV-1; K562; HCT-116; U-251; TK-10; SR.
Holding throughout (test): NCI-60 cell line screen, 48 h

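Exposure lasted 48 hours, with cells grown in 96-well plates and compounds tested at five concentrations. The concentration for 50% growth inhibition is given as GI50.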 Activity calls are given as the source filed them. Cut-off read from the data, not from the text of the source: active = GI50 up to about 1.1 µM and inactive = higher.

Take `O=C(Nc1sccc1S(=O)(=O)c1ccc(Cl)cc1)c1ccccc1`: the GI50 with UO-31 was > 100 µM (inactive); in the assay with MDA-MB-231, > 100 µM (inactive); with SW-620 it was > 100 µM (inactive); with HOP-62, 87.9 µM (inactive); in the assay with UACC-62, > 100 µM (inactive); in the assay on SNB-75, 98.6 µM (inactive). Besides, the GI50 in the assay with Hs-578T, with NCI-H522, in the assay on HT-29, in the assay on PC-3, in the assay with HL-60 and in the assay on RPMI-8226 was > 100 µM (inactive) each time. For the same compound, the GI50 in the assay on SK-MEL-2, in the assay on A498, in the assay on IGROV-1, in the assay on K562, with HCT-116 and with U-251 was > 100 µM (inactive) each time. Moreover, the GI50 in the assay with TK-10 was 40.1 µM (inactive); in the assay on SR, > 100 µM (inactive).
On to `COC(=O)[C@]12CC=C3O[C@@H]4OC5(CCCCC5)O[C@@H]4[C@H]3C1C(=O)C=CC2=O` (stereo not given in full), for which the GI50 is 17 µM (inactive) in the assay on UO-31; 16.8 µM (inactive) in the assay with MDA-MB-231; 15.9 µM (inactive) with SW-620; 21 µM (inactive) with HOP-62; 16 µM (inactive) in the assay on UACC-62; 18.8 µM (inactive) in the assay with SNB-75. The GI50 with Hs-578T is 26.1 µM (inactive); with NCI-H522, 5.53 µM (inactive); with HT-29 it was 17.9 µM (inactive); in the assay with PC-3, 24.9 µM (inactive); in the assay with HL-60 it was 8.91 µM (inactive); with RPMI-8226, 7.64 µM (inactive). Moreover, the GI50 in the assay on SK-MEL-2 was 22.2 µM (inactive); with A498, 17.9 µM (inactive); in the assay on IGROV-1, 18.4 µM (inactive); in the assay with K562, 14.6 µM (inactive); in the assay on HCT-116 it was 17.5 µM (inactive); in the assay with U-251 it was 18.7 µM (inactive). Besides, the GI50 with TK-10 is 17.1 µM (inactive); in the assay with SR, 22.3 µM (inactive).
On to `Oc1ccc(Cl)cc1-c1cc(-c2ccccc2)nc(NCN2CCCCC2)n1`, for which the GI50 in the assay on UO-31, in the assay with MDA-MB-231, with SW-620, in the assay with HOP-62, in the assay on UACC-62 and in the assay with SNB-75 was > 100 µM (inactive) each time. For the same compound, the GI50 with Hs-578T, with NCI-H522, with HT-29, in the assay with PC-3, with HL-60 and in the assay on RPMI-8226 was > 100 µM (inactive) in each case. The GI50 in the assay on SK-MEL-2 was > 100 µM (inactive); in the assay with A498 it was > 100 µM (inactive); in the assay on IGROV-1, > 100 µM (inactive); in the assay with K562, > 100 µM (inactive); in the assay with HCT-116 it was 6.68 µM (inactive); in the assay with U-251 it was > 100 µM (inactive). For the same compound, the results for the GI50 in the assay with TK-10 and in the assay on SR were > 100 µM (inactive) and 4.19 µM (inactive), respectively.
Turning to `CN(C)c1ccc(/C=N/c2nc3cc4sc(/N=C/c5ccc(N(C)C)cc5)nc4cc3s2)cc1`, the GI50 is 92.7 µM (inactive) with UO-31; > 100 µM (inactive) in the assay with MDA-MB-231; 33.9 µM (inactive) in the assay on SW-620; 55.7 µM (inactive) in the assay on HOP-62; > 100 µM (inactive) in the assay with UACC-62; 63.2 µM (inactive) in the assay on SNB-75. Also, the GI50 is 18.1 µM (inactive) in the assay with Hs-578T; 9.98 µM (inactive) in the assay on NCI-H522; 34.1 µM (inactive) in the assay with HT-29; > 100 µM (inactive) in the assay with PC-3; 16.9 µM (inactive) in the assay with HL-60; 19.1 µM (inactive) with RPMI-8226. Besides, the GI50 in the assay with SK-MEL-2 is > 100 µM (inactive); in the assay with A498, 26.7 µM (inactive); in the assay on IGROV-1 it was > 100 µM (inactive); in the assay with K562, 70.1 µM (inactive); in the assay with HCT-116, 30.5 µM (inactive); in the assay with U-251 it was 50.5 µM (inactive). In addition, the GI50 was 80.7 µM (inactive) with TK-10 and 29.4 µM (inactive) in the assay with SR.
Take `CCOC(=O)CCN1C(=O)C(=O)N(c2ccc(OC)cc2)C1=S`: the GI50 with UO-31 was 56.5 µM (inactive); in the assay with MDA-MB-231, > 100 µM (inactive); in the assay on SW-620, > 100 µM (inactive); in the assay on HOP-62 it was > 100 µM (inactive); in the assay on UACC-62, 16 µM (inactive); in the assay on SNB-75 it was > 100 µM (inactive). In addition, the GI50 in the assay on Hs-578T was 47.1 µM (inactive); in the assay with NCI-H522 it was 14.8 µM (inactive); with HT-29 it was > 100 µM (inactive); in the assay on PC-3 it was > 100 µM (inactive); with HL-60, > 100 µM (inactive); with RPMI-8226, > 100 µM (inactive). Moreover, the GI50 is > 100 µM (inactive) in the assay on SK-MEL-2; > 100 µM (inactive) in the assay with A498; > 100 µM (inactive) with IGROV-1; 54.6 µM (inactive) with K562; > 100 µM (inactive) in the assay on HCT-116; > 100 µM (inactive) in the assay on U-251. Further, the GI50 in the assay on TK-10 and in the assay on SR was > 100 µM (inactive) throughout.
Regarding `CCOC(=O)c1c(SCCN(CC)CC)n(-c2ccccc2)c(=S)n(-c2ccccc2)c1=O`, the GI50 with UO-31 is 1.72 µM (inactive); with MDA-MB-231, 3.33 µM (inactive); in the assay with SW-620, 2.74 µM (inactive); with HOP-62, 17.3 µM (inactive); with UACC-62 it was 4.61 µM (inactive); in the assay with SNB-75, 8.81 µM (inactive). Besides, the GI50 in the assay with Hs-578T is 3.32 µM (inactive); with NCI-H522, 1.56 µM (inactive); in the assay on HT-29, 4.47 µM (inactive); with PC-3 it was 2.05 µM (inactive); in the assay with HL-60 it was 1.73 µM (inactive); in the assay on RPMI-8226, 0.635 µM (active). Besides, the GI50 in the assay with SK-MEL-2 was 13.4 µM (inactive); in the assay on A498 it was 15.2 µM (inactive); with IGROV-1, 5.16 µM (inactive); with K562, 1.72 µM (inactive); in the assay on HCT-116, 3.87 µM (inactive); with U-251, 15.6 µM (inactive). Further, the GI50 in the assay on TK-10 is 1.81 µM (inactive); in the assay on SR, 0.714 µM (active).
With `COc1ccc(OC)c2c(=S)c3ccccc3[nH]c12`, the GI50 is 39.4 µM (inactive) in the assay with UO-31; > 100 µM (inactive) with MDA-MB-231; > 75.3 µM (inactive) in the assay on SW-620; > 100 µM (inactive) in the assay on HOP-62; 60.1 µM (inactive) in the assay on UACC-62; > 79.6 µM (inactive) with SNB-75. Further, the GI50 in the assay with Hs-578T is > 100 µM (inactive); with NCI-H522 it was 49.1 µM (inactive); in the assay on HT-29, 64.6 µM (inactive); with PC-3, 78.5 µM (inactive); with HL-60, 25.3 µM (inactive); in the assay on RPMI-8226, 37.9 µM (inactive). The GI50 in the assay on SK-MEL-2 was > 100 µM (inactive); in the assay with A498, > 92.3 µM (inactive); with IGROV-1, > 96.6 µM (inactive); in the assay with K562 it was 36.3 µM (inactive); in the assay with HCT-116, 64.6 µM (inactive); with U-251, > 87.3 µM (inactive). The GI50 in the assay with TK-10 was > 67.8 µM (inactive); with SR, 49.5 µM (inactive).
`C=C(C)[C@@H]1CC[C@]2(C(=O)O)CC[C@]3(C)[C@H](CC[C@@H]4[C@@]5(C)CC(=O)C(C)(C)[C@@H]5CC[C@]43C)[C@@H]12`: the GI50 in the assay on UO-31 was 7.29 µM (inactive); in the assay with MDA-MB-231 it was 5.65 µM (inactive); in the assay with SW-620, 7.23 µM (inactive); in the assay with HOP-62, 9.46 µM (inactive); in the assay with UACC-62 it was 3.28 µM (inactive); in the assay on SNB-75, 10.6 µM (inactive). Further, the GI50 is 9.48 µM (inactive) with Hs-578T; 5.78 µM (inactive) in the assay on NCI-H522; 7.19 µM (inactive) in the assay with HT-29; 7.24 µM (inactive) with PC-3; 0.649 µM (active) with HL-60; 4.48 µM (inactive) with RPMI-8226. Moreover, the GI50 with SK-MEL-2 is 4.52 µM (inactive); in the assay with A498 it was 5.6 µM (inactive); with IGROV-1, 9.86 µM (inactive); with K562, 6.38 µM (inactive); with HCT-116 it was 4.01 µM (inactive); in the assay on U-251, 6.47 µM (inactive). The GI50 is 11 µM (inactive) in the assay with TK-10 and 5.13 µM (inactive) with SR.
Consider `Cn1c(N)cc(=O)nc1N`, for which the GI50 in the assay on UO-31, in the assay with MDA-MB-231, in the assay on SW-620, in the assay on HOP-62, in the assay on UACC-62 and in the assay on SNB-75 was > 100 µM (inactive) in each case. Also, the GI50 in the assay with Hs-578T, in the assay on NCI-H522, with HT-29, in the assay with PC-3, in the assay with HL-60 and in the assay with RPMI-8226 was > 100 µM (inactive) throughout. Also, the GI50 in the assay on SK-MEL-2, in the assay with A498, in the assay with IGROV-1, in the assay on K562, in the assay on HCT-116 and in the assay with U-251 was > 100 µM (inactive) in each case. Further, the GI50 in the assay on TK-10 and in the assay with SR was > 100 µM (inactive) throughout.
Regarding `O=C(/C=C/c1ccc([N+](=O)[O-])cc1)N1CCN(CCOC(c2ccc(F)cc2)c2ccc(F)cc2)CC1`, the GI50 in the assay with UO-31 is 14.3 µM (inactive); in the assay with MDA-MB-231 it was > 100 µM (inactive); in the assay with SW-620, > 100 µM (inactive); with HOP-62 it was > 100 µM (inactive); with UACC-62 it was 13.8 µM (inactive); with SNB-75 it was 4.7 µM (inactive). Moreover, the GI50 with Hs-578T was > 100 µM (inactive); in the assay on NCI-H522, 63.5 µM (inactive); in the assay with HT-29, 13 µM (inactive); in the assay with PC-3, > 100 µM (inactive); in the assay with HL-60, 9.68 µM (inactive); with RPMI-8226, 3.78 µM (inactive). Further, the GI50 in the assay on SK-MEL-2 was > 100 µM (inactive); in the assay on A498, 16 µM (inactive); in the assay with IGROV-1 it was 56.9 µM (inactive); in the assay with K562, 4.99 µM (inactive); in the assay on HCT-116, 9.64 µM (inactive); with U-251 it was > 100 µM (inactive). Also, the GI50 in the assay on TK-10 is > 100 µM (inactive); in the assay with SR it was 7.21 µM (inactive).
